Reference: patent EP4800016A1, “METTL3 INHIBITOR” (Hangzhou Bangshun Pharmaceutical Co., Ltd., priority 2023, dated 2025)

What was measured:
METTL3/14 = target: T1, METTL3/14 (Homo sapiens, UniProt Q86U44); assay: METTL3/14 methyltransferase activity assay (HTRF); type: biochemical; settings: 10 concentrations, 3-fold dilution from 10 µM
T1 construct: purchased active motif 31570
Protocol: The final initial concentration of the compound was 10 µM, with 3-fold serial dilution to give a total of 10 concentrations. 100 nL of the compound was transferred to a 384-well plate and centrifuged at 1000 RPM. 2.5 µL of METTL3/14 (active motif, Cat No. 31570) was added to the test wells and incubated at 25°C for 10 min. 2.5 µL of METTL3-Biotin & SAM (GenScript) was added to the test wells andincubated at 25°C for 60 min. 2.5 µL of YTHDF1 (active motif, Cat No. 31608) was added to the test wells and centrifuged at 1000 RPM. 2.5 µL of Streptavidin-Tb (Perkin Elmer Cat No. 61SATLB) & Flag-mede (Perkin Elmer Cat No. 61FG2DLA) was added to the test wells and centrifuged at 1000 RPM. Incubated at 25°C for 60 min. HTRF was measured using a Plate reader. The results of each compound are shown in Table 1, where A+indicates <10nM, A indicates 10-100nM, B indicates 100-1000nM, and C indicates >1000nM.

Kasumi-1 cells = assay: Kasumi-1 cell inhibitory activity (CellTiter-Glo, 5 days); type: cell-based; settings: Homo sapiens, 120 h, 5 days incubation, CellTiter-Glo luminescence
Protocol: Test compounds were dissolved in DMSO to prep are a 250×final concentration solution. The initial concentration was 10 µM with 3-fold dilution, resulting in a total of ten concentration points. 4 µL of the compound solution was added to 96 µL of cell culture medium to dilute it to 10×the final concentration. On the first day, Kasumi-1 cells (purchased from Precedo) were suspended in cell culture medium at the desired density, 90 µL of the cell suspension was added to a 96-well plate, and 10 µL of 10×compound solution was added for incubation, with a final DMSO concentration of 0.4% in each well. Incubated at 37 °C, 5% CO2 for 5 days. Before measurement after 5 days, the test plate was placed at room temperature, 50 µL of CellTiter-Glo® reagent (purchased from Promega, Cat. No. G7573) was added, mixed on a shaker for 2 minutes to lyse the cells, and incubated at room temperature for 10 minutes to stabilize the […] signal. Luminescence values were recorded using Paradigm, and the response-concentration curve was fitted with Graphpad Pr ism 8.0 to calculate IC50values. The results of each compound are shown in Table2, where A indicates <100nM, B indicates 100-1000nM, and C indicates >1000nM. [formula]

T1 sequence (Q86U44 whole entry): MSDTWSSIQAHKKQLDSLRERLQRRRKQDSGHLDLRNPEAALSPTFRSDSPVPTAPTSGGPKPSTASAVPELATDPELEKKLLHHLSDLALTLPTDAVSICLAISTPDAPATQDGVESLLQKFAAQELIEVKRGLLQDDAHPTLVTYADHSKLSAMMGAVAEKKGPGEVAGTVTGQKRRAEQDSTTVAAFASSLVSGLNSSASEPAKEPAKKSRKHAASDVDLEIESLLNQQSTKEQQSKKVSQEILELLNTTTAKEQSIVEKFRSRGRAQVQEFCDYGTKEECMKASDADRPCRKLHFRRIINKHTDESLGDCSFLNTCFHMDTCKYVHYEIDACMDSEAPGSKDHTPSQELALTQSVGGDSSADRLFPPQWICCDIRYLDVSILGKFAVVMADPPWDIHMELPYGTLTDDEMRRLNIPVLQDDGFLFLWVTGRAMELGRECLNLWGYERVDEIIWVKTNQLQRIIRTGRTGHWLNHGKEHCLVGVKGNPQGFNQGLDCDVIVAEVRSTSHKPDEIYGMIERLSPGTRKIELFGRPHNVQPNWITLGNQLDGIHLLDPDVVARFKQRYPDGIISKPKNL
T1 sequence (Q9HCE5 whole entry partner): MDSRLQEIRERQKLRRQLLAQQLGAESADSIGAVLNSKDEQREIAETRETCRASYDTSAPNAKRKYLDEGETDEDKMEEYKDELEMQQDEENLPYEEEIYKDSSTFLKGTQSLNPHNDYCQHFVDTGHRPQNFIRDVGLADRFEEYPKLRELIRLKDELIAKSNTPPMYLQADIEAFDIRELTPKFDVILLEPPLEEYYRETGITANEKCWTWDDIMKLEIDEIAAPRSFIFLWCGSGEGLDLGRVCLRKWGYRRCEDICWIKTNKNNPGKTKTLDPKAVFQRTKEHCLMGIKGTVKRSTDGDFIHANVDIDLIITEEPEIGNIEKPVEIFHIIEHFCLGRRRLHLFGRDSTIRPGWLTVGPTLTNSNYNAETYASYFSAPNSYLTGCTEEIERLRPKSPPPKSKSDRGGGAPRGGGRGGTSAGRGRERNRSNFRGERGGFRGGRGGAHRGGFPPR

| Compound | IC50 (METTL3/14) [nM] | IC50 (Kasumi-1 cells) [nM] |
| --- | --- | --- |
| CC1(CNCc2cc3ccc(CNC(=O)c4cc(=O)n5cc6c(cc5n4)OCCO6)cc3[nH]2)CC(F)(F)C1 [Example 54, N-((2-((((3,3-Difluoro-1-methylcyclobutyl)methyl)amino)methyl)-1H-indol-6-yl)methyl)-9-oxo-2,3-dihydro-9H-[1,4]dioxino[2',3':4,5]pyrido[1,2-a]pyrimidine-7-carboxamide] | < 10 | 100 to 1000 |
| O=C(NCc1cc2[nH]c(CNCC34CC(CO3)C4)cc2cc1F)c1cc(=O)n2cc3c(cc2n1)OCCO3 [Example 86, N-((2-((((2-Oxabicyclo[2.1.1]hexan-1-yl)methyl)amino)methyl)-5-fluoro-1H-indol-6-yl)methyl)-9-oxo-2,3-dihydro-9H-[1,4]dioxino[2',3':4,5]pyrido[1,2-a]pyrimidine-7-carboxamide] | 10 to 100 | 100 to 1000 |
| O=C(NCc1ccc2cc(CNCC3CCC3)[nH]c2c1)c1cn2ncc3c2c(n1)NCCO3 [Example 44, N-((2-(((Cyclobutylmethyl)amino)methyl)-1H-indol-6-yl)methyl)-7,8-dihydro-6H-9-oxa-2,2a,5,6-tetraazabenzo[cd]azulene-4-carboxamide] | 10 to 100 | 100 to 1000 |
| [2H]C([2H])(NCc1cc2cc(F)c(CNC(=O)c3cc(=O)n4cc5c(cc4n3)OCO5)cc2[nH]1)C12CC(CO1)C2 [Example 93, N-((2-((((2-Oxabicyclo[2.1.1]hexan-1-yl)methyl-d2)amino)methyl)-5-fluoro-1H-indol-6-yl)methyl)-8-oxo-8H-[1,3]dioxolo[4',5':4,5]pyrido[1,2-a]pyrimidine-6-carboxamide] | 10 to 100 | 100 to 1000 |
| O=C(NCc1ccc2cc(CNCC3CCC3)[nH]c2c1)c1cn2ncc3c2c(n1)NCCC3 [Example 45, N-((2-(((Cyclobutylmethyl)amino)methyl)-1H-indol-6-yl)methyl)-6,7,8,9-tetrahydro-2,2a,5,6-tetraazabenzo[cd]azulene-4-carboxamide] | 10 to 100 | 100 to 1000 |
| CC1(CNCc2cc3ccc(CNC(=O)c4cc(=O)n5cc6c(cc5n4)OCCO6)cc3[nH]2)CCC1 [Example 52, N-((2-((((1-Methylcyclobutyl)methyl)amino)methyl)-1H-indol-6-yl)methyl)-9-oxo-2,3-dihydro-9H-[1,4]dioxino[2',3':4,5]pyrido[1,2-a]pyrimidine-7-carboxamide] | < 10 | 100 to 1000 |
| [2H]C([2H])(NCc1cc2ccc(CNC(=O)c3cc(=O)n4cc5c(cc4n3)OCO5)cc2[nH]1)C12CC(CO1)C2 [Example 92, N-((2-((((2-Oxabicyclo[2.1.1]hexan-1-yl)methyl-d2)amino)methyl)-1H-indol-6-yl)methyl)-8-oxo-8H-[1,3]dioxolo[4',5':4,5]pyrido[1,2-a]pyrimidine-6-carboxamide] | 10 to 100 | 100 to 1000 |
| O=C(NCc1ccc2cc(CNCC34CC(F)(C3)C4)[nH]c2c1)c1cc(=O)n2cc3c(cc2n1)OCO3 [Example 36, N-((2-((((3-Fluorobicyclo[1.1.1]pentan-1-yl)methyl)amino)methyl)-1H-indol-6-y1)methyl)-8-oxo-8H-[1,3]dioxolo[4',5':4,5]pyrido[1,2-a]pyrimidine-6-carboxamide] | < 10 | < 100 |
| CC1(CNCc2cc3ccc(CNC(=O)c4cc(=O)n5cc6c(cc5n4)OCO6)cc3[nH]2)CC(F)(F)C1 [Example 53, N-((2-((((3,3-Difluoro-1-methylcyclobutyl)methyl)amino)methyl)-1H-indol-6-yl)methyl)-8-oxo-8H-[1,3]dioxolo[4',5':4,5]pyrido[1,2-a]pyrimidine-6-carboxamide] | < 10 | 100 to 1000 |
| [2H]C([2H])(NCc1cc2ccc(CNC(=O)c3cc(=O)n4cc5c(cc4n3)OCCO5)cc2[nH]1)C12CC(F)(C1)C2 [Example 95, N-((2-((((3-fluorobicyclo[1.1.1]pentan-1-yl)methyl-d2)amino)methyl)-1H-indol-6-yl)methyl)-9-oxo-2,3-dihydro-9H-[1,4]dioxino[2',3':4,5]pyrido[1,2-a]pyrimidine-7-carboxamide] | < 10 | < 100 |
| O=C(NCc1ccc2cc(CN3CCC(F)(F)CC3)[nH]c2c1)c1cc(=O)n2cc3c(cc2n1)OCO3 [Example 29, N-((2-((4,4-Difluoropiperidin-1-yl)methyl)-1H-indol-6-yl)methyl)-8-oxo-8H-[1,3]dioxolo[4',5':4,5]pyrido[1,2-a]pyrimidine-6-carboxamide] | 10 to 100 |  |
| O=C(NCc1ccc2cc(CNCC3CCC3)[nH]c2c1)c1ccn(Cc2ccccc2)c(=O)c1 [Example 11, 1-Benzyl-N-((2-(((cyclobutylmethyl)amino)methyl)-1H-indol-6-yl)methyl)-2-oxo-1,2-dihydropyridine-4-carboxamide] | 10 to 100 |  |
| O=C(NCc1ccc2cc(CN3CCOC4(CCC4)C3)[nH]c2c1)c1cc(=O)n2cc3c(cc2n1)OCCO3 [Example 81, N-((2-((5-oxa-8-azaspiro[3.5]nonan-8-yl)methyl)-1H-indol-6-yl)methyl)-9-oxo-2,3-dihydro-9H-[1,4]dioxino[2',3':4,5]pyrido[1,2-a]pyrimidine-7-carboxamide] | 100 to 1000 |  |
| O=C(NCc1ccc2cc(CNCC34CCCC3C4)[nH]c2c1)c1cc(=O)n2cc3c(cc2n1)OCCO3 (stereo not drawn) [Example 63, N-((2-(((Bicyclo[3.1.0]hexan-1-ylmethyl)amino)methyl)-1H-indol-6-yl)methyl)-9-oxo-2,3-dihydro-9H-[1,4]dioxino[2',3':4,5]pyrido[1,2-a]pyrimidine-7-carboxamide] | < 10 |  |
| O=C(NCc1ccc2cc(CNCC3CCC3)[nH]c2c1)c1cn2ncccc2n1 [Example 1, N-((2-(((Cyclobutylmethyl)amino)methyl)-1H-indol-6-yl)methyl)imidazo[1,2-b]pyridazine-2-carboxamide] | 10 to 100 |  |

Further lines, with some results ahead:

| IC50 (METTL3/14) [nM] | Compound | IC50 (Kasumi-1 cells) [nM] |
| --- | --- | --- |
| 10 to 100 | O=C(NCc1cc2[nH]c(CNCC3CCC3)cc2cc1F)c1cc(=O)n2cc3c(cc2n1)OCCO3 [Example 85, N-((2-(((Cyclobutylmethyl)amino)methyl)-5-fluoro-1H-indol-6-yl)methyl)-9-oxo-2,3-dihydro-9H-[1,4]dioxino[2',3':4,5]pyrido[1,2-a]pyrimidine-7-carboxamide] | < 100 |
| < 10 | [2H]C([2H])(NCc1cc2ccc(CNC(=O)c3cc(=O)n4cc5c(cc4n3)OCO5)cc2[nH]1)C1CCC1 [Example 71, N-((2-(((Cyclobutylmethyl-d2)amino)methyl)-1H-indol-6-yl)methyl)-8-oxo-8H-[1,3]dioxolo[4',5':4,5]pyrido[1,2-a]pyrimidine-6-carboxamide] | < 100 |
| < 10 | CC1(CNCc2cc3ccc(CNC(=O)c4cc(=O)n5cc6c(cc5n4)OCO6)cc3[nH]2)CCC1 [Example 51, N-((2-((((1-Methylcyclobutyl)methyl)amino)methyl)-1H-indol-6-yl)methyl)-8-oxo-8H-[1,3]dioxolo[4',5':4,5]pyrido[1,2-a]pyrimidine-6-carboxamide] | 100 to 1000 |
| 10 to 100 | O=C(NCc1cc2[nH]c(CNCC3CCC3)cc2s1)c1cc(=O)n2cc3c(cc2n1)OCO3 [Example 32, N-((5-(((Cyclobutylmethyl)amino)methyl)-4H-thieno[3,2-b]pyrrol-2-yl)methyl)-8-oxo-8H-[1,3]dioxolo[4',5':4,5]pyrido[1,2-a]pyrimidine-6-carboxamide] | 100 to 1000 |
| 10 to 100 | O=C(NC1(c2ccc3cc(CNCC4CCC4)[nH]c3c2)CC1)c1cc(=O)n2cc3c(cc2n1)OCCO3 [Example 43, N-(1-(2-(((Cyclobutylmethyl)amino)methyl)-1H-indol-6-yl)cyclopropyl)-9-oxo-2,3-dihydro-9H-[1,4]dioxino[2',3':4,5]pyrido[1,2-a]pyrimidine-7-carboxamide] |  |
| 10 to 100 | O=C(NCc1ccc2cc(CNC[C@@H]3CCO3)[nH]c2c1)c1cc(=O)n2cc3c(cc2n1)OCCO3 [Example 79, (S)-N-((2-(((oxetan-2-ylmethyl)amino)methyl)-1H-indol-6-yl)methyl)-9-oxo-2,3-dihydro-9H-[1,4]dioxolo[2',3':4,5]pyrido[1,2-a]pyrimidine-7-carboxamide] |  |
| 10 to 100 | O=C(NCc1ccc2cc(CNC[C@H]3CCCO3)[nH]c2c1)c1cc(=O)n2cc3c(cc2n1)OCCO3 [Example 78, (R)-9-Oxo-N-((2-((((tetrahydrofuran-2-yl)methyl)amino)methyl)-1H-indol-6-yl)methyl)-2,3-dihydro-9H-[1,4]dioxino[2',3':4,5]pyrido[1,2-a]pyrimidine-7-carboxamide] |  |
